Experimental data published in the supplement of paper PMC10307832.

Legend:
Assay in all cases: relative viability (nuclei count vs DMSO), 5 days (fraction); higher = more cells survive
[1] = compound: CC1=CC(=NN1)NC2=CC(=NC(=N2)/C=C/C3=CC=CC=C3)N4CCN(CC4)C + Nc1nc2[nH]cc(CCc3ccc(C(=O)N[C@@H](CCC(=O)O)C(=O)O)cc3)c2c(=O)[nH]1 [Pemetrexed] (partner 0.2 µM)
How it was run: (§1)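 Lung cancer cell lines in 1536-well plates were dosed by pin tool the day after seeding, either with one drug alone or with a fixed anchor-drug dose plus five library-drug doses (not always all listed) in √10 steps. After 5 days, cells were fixed and their nuclei stained in one step (final 0.05% Triton X-100, 1% formaldehyde, 1 ug/ml Hoechst), then counted on 4× images. Relative viability is the nuclei count in treated wells divided by that in vehicle wells. Values are medians of duplicate plates.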

[2] = compound: CC1=CC(=NN1)NC2=CC(=NC(=N2)/C=C/C3=CC=CC=C3)N4CCN(CC4)C + O=C(c1cc(Cc2n[nH]c(=O)c3ccccc23)ccc1F)N1CCN(C(=O)C2CC2)CC1 [Olaparib] (partner 8 µM)
How it was run: as §1

Obatoclax + Olaparib = compound: COC1=CC(c2cc3ccccc3[nH]2)=N/C1=C\c1[nH]c(C)cc1C [Obatoclax] + O=C(c1cc(Cc2n[nH]c(=O)c3ccccc23)ccc1F)N1CCN(C(=O)C2CC2)CC1 [Olaparib] (partner 8 µM)
How it was run: as §1

[3] = compound: CC1=CC(=NN1)NC2=CC(=NC(=N2)/C=C/C3=CC=CC=C3)N4CCN(CC4)C + NC(=O)Nc1cc(-c2cccc(F)c2)sc1C(=O)N[C@H]1CCCNC1 [AZD7762] (partner 0.2 µM)
How it was run: as §1

Row | Cell Line | relative viability ([1]; first compound 0.08 µM) | relative viability ([1]; first compound 0.253 µM) | relative viability ([1]; first compound 0.8 µM) | relative viability ([1]; first compound 2.53 µM) | relative viability ([1]; first compound 8 µM) | relative viability ([2]; first compound 0.08 µM) | relative viability ([2]; first compound 0.253 µM) | relative viability ([2]; first compound 0.8 µM) | relative viability ([2]; first compound 2.53 µM) | relative viability ([2]; first compound 8 µM) | relative viability (Obatoclax + Olaparib; first compound 0.01 µM) | relative viability (Obatoclax + Olaparib; first compound 0.03162 µM) | relative viability (Obatoclax + Olaparib; first compound 0.1 µM) | relative viability (Obatoclax + Olaparib; first compound 0.3162 µM) | relative viability (Obatoclax + Olaparib; first compound 1 µM) | relative viability ([3]; first compound 0.08 µM) | relative viability ([3]; first compound 0.253 µM) | relative viability ([3]; first compound 0.8 µM) | relative viability ([3]; first compound 2.53 µM) | relative viability ([3]; first compound 8 µM)
1 | 201T | 0.31 | 0.318 | 0.376 | 0.327 | 0.298 | 0.838 | 0.837 | 0.828 | 0.819 | 0.487 | 0.873 | 0.782 | 0.838 | 0.823 | 0.831 | 0.667 | 0.526 | 0.628 | 0.538 | 0.53
2 | A549 |  |  |  |  |  | 0.292 | 0.529 | 0.287 | 0.156 | 0.0245 | 0.326 | 0.367 | 0.0867 | 0.361 | 0.342 |  |  |  |  | 
3 | A-427 | 1.06 | 1.1 | 0.97 | 0.51 | 0.202 | 0.815 | 0.774 | 0.913 | 0.468 | 0.158 | 0.82 | 0.706 | 0.559 | 0.775 | 0.416 | 0.83 | 0.683 | 0.713 | 0.238 | 0.163
4 | ABC-1 |  |  |  |  |  | 0.904 | 0.946 | 1.01 | 0.647 | 0.324 | 1.08 | 0.95 | 0.776 | 0.799 | 0.566 |  | 1.16 | 0.795 | 0.907 | 0.175
5 | BEN | 0.723 | 0.809 | 0.699 | 0.476 | 0.323 | 0.985 | 1.17 | 0.987 | 0.606 | 0.275 | 1.03 | 1.04 | 0.864 | 0.914 | 0.942 | 0.734 | 0.726 | 0.667 | 0.508 | 0.283
6 | CAL-12T | 1.09 | 1.25 | 1.16 | 0.56 | 0.159 | 0.714 | 0.741 | 0.714 | 0.238 | 0.237 | 0.759 | 0.764 | 0.724 | 0.679 | 0.232 | 0.626 | 0.655 | 0.647 | 0.319 | 0.152
7 | COR-L23 | 0.202 | 0.203 | 0.179 | 0.166 | 0.105 | 0.335 | 0.339 | 0.32 | 0.126 | 0.0705 | 0.37 | 0.352 | 0.354 | 0.248 | 0.156 |  |  |  |  | 
8 | COR-L 105 | 1.23 | 1.13 | 0.945 | 0.351 | 0.29 | 0.591 | 0.688 | 0.691 | 0.658 | 0.27 | 0.727 | 0.76 | 0.737 | 0.672 | 0.457 |  |  |  |  | 
9 | Calu-6 |  |  |  |  |  | 0.577 | 0.558 | 0.469 | 0.289 | 0.0899 | 0.538 | 0.565 | 0.611 | 0.534 | 0.239 |  |  |  |  | 
10 | ChaGo-K-1 | 0.259 | 0.264 | 0.27 | 0.227 | 0.17 | 0.371 | 0.42 | 0.38 | 0.234 | 0.148 | 0.4 | 0.439 | 0.391 | 0.382 | 0.41 | 0.823 | 0.935 | 0.824 | 0.439 | 0.241
11 | EBC-1 |  |  |  |  |  | 0.631 | 0.753 | 0.7 | 0.46 | 0.114 | 0.632 | 0.765 | 0.642 | 0.583 | 0.269 |  |  |  |  | 
12 | EKVX | 0.366 | 0.5 | 0.674 | 0.361 | 0.197 | 0.779 | 0.804 | 0.904 | 0.695 | 0.157 | 0.842 |  | 0.966 | 0.888 | 0.648 | 0.649 | 0.667 | 0.753 | 0.413 | 0.122
13 | EMC-BAC-2 | 0.439 | 0.495 | 0.445 | 0.465 | 0.234 | 0.465 | 0.521 | 0.445 | 0.341 | 0.197 | 0.491 | 0.514 | 0.418 | 0.478 | 0.43 | 1.11 | 1.22 | 1.1 | 0.654 | 0.354
14 | EPLC-272H | 0.329 | 0.363 | 0.342 | 0.104 | 0.136 | 0.725 | 0.901 | 0.496 | 0.12 | 0.0643 | 0.796 | 0.889 | 0.756 | 0.263 | 0.215 | 0.17 | 0.209 | 0.196 | 0.116 | 0.0909
15 | H3255 | 0.526 | 0.589 | 0.573 | 0.555 | 0.391 | 0.553 | 0.568 | 0.599 | 0.575 | 0.326 | 0.537 | 0.608 | 0.541 | 0.557 | 0.546 | 0.866 | 0.935 | 0.955 | 0.782 | 0.374
16 | HARA | 0.234 | 0.252 | 0.252 | 0.165 | 0.175 | 0.617 | 1.01 | 0.582 | 0.121 | 0.099 | 0.639 | 0.962 | 1.03 | 0.99 | 0.89 | 0.386 | 0.351 | 0.412 | 0.193 | 0.154
17 | HCC-15 | 0.244 | 0.22 | 0.225 | 0.192 | 0.113 | 0.748 | 0.611 | 0.718 | 0.298 | 0.113 | 0.734 | 0.769 | 0.694 | 0.763 | 0.704 | 1.1 | 1.46 | 1.25 | 0.875 | 0.34
18 | HCC-44 | 0.642 | 0.644 | 0.631 | 0.622 | 0.557 | 0.974 | 1.01 | 0.956 | 0.965 | 0.759 | 0.965 | 0.988 | 0.966 | 0.969 | 0.94 | 1.02 | 1.03 | 1.01 | 1.01 | 0.844
